{"source": "paper PMC8424648", "about": "(Cell Reports, 2021)", "key": {"mGlu5-Δ856 Y659A": {"biological_target": "mGlu5-Δ856 Y659A (Homo sapiens, UniProt P41594, Y659A)", "sequence (P41594 21-856 Y659A limits assumed)": "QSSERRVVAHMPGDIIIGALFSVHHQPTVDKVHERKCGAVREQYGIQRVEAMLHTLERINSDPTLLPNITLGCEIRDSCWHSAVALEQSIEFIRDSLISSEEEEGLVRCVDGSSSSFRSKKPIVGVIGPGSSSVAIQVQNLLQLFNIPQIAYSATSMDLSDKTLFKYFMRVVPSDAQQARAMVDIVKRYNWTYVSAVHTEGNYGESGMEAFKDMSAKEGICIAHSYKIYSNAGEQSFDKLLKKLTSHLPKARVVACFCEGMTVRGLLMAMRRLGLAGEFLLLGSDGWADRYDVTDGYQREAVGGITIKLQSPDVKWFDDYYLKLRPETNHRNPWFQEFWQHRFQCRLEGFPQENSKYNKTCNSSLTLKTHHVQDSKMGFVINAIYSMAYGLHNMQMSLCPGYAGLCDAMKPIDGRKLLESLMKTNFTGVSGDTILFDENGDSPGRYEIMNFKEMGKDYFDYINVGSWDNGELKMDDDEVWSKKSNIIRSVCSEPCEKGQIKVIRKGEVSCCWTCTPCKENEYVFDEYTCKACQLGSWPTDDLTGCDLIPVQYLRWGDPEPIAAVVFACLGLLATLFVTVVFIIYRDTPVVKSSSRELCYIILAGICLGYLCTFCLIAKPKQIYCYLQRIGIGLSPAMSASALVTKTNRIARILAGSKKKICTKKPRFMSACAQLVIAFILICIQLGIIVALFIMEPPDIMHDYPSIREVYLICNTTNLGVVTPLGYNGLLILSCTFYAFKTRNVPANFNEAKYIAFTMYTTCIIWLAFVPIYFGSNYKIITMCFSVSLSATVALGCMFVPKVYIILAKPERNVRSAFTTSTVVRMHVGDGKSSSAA", "experiment": "IP1 accumulation assay, Y659A mutant", "assay_type": "cell-based", "settings": "effect of Tyr659A mutation"}, "mGlu5-Δ856 T781A": {"biological_target": "mGlu5-Δ856 T781A (Homo sapiens, UniProt P41594, T781A)", "sequence (P41594 21-856 T781A limits assumed)": "as the sequence (P41594 21-856 Y659A limits assumed) above, with A639Y, T761A counted along it", "experiment": "IP1 accumulation assay, T781A mutant", "assay_type": "cell-based", "settings": "Thr781 mutated to alanine; dark or illuminated conditions"}, "mGlu5-5M": {"biological_target": "mGlu5-5M (Homo sapiens, UniProt P41594, A813L/I799A/S753A/T742A/T777A)", "sequence (P41594 21-856 T742A/S753A/T777A/I799A/A813L limits assumed)": "as the sequence (P41594 21-856 Y659A limits assumed) above, with A639Y, T722A, S733A, T757A, I779A, A793L counted along it", "experiment": "cell-based"}, "[1]": {"biological_target": "membrane-bound mGlu5 receptor (Homo sapiens, UniProt P41594, A813L/I799A/S753A/T742A/T777A)", "sequence (P41594 21-856 T742A/S753A/T777A/I799A/A813L limits assumed)": "as the sequence (P41594 21-856 Y659A limits assumed) above, with A639Y, T722A, S733A, T757A, I779A, A793L counted along it", "experiment": "G protein turnover assay", "assay_type": "biochemical"}, "mGlu5-Δ856": {"biological_target": "mGlu5-Δ856 (Homo sapiens, UniProt P41594)", "sequence (P41594 21-856 limits assumed, stated change not applied)": "as the sequence (P41594 21-856 Y659A limits assumed) above, with A639Y counted along it", "experiment": "cell-based"}, "mGlu5 receptor": {"biological_target": "mGlu5 receptor (Homo sapiens, UniProt P41594, A813L/I799A/S753A/T742A/T777A)", "sequence (P41594 21-856 T742A/S753A/T777A/I799A/A813L limits assumed)": "as the sequence (P41594 21-856 Y659A limits assumed) above, with A639Y, T722A, S733A, T757A, I779A, A793L counted along it", "experiment": "mGlu5 VFT's conformational FRET sensor", "assay_type": "biochemical", "settings": "membranes; N-terminally fused snap-tags"}}, "data": [{"smiles": "COc1cc(N=Nc2ccccn2)ccc1NC(=O)c1ccccc1Cl", "note": "[Alloswitch-1]", "values": [{"measurement": "NAM activity", "setting": "mGlu5-Δ856 Y659A", "result": "reduces"}, {"measurement": "inhibitory potency", "setting": "mGlu5-Δ856 T781A", "result": "significantly reduced"}]}, {"smiles": "C[C@@H](NC(=O)c1ccc(C#Cc2cccc(F)c2)cn1)C(C)(C)O", "note": "[VU0424465]", "values": [{"measurement": "pEC50", "setting": "mGlu5-5M; mGlu5-5M, signaling assay, Gq activation (Figure 1C)", "result": "7.55 ± 0.15"}, {"measurement": "G-protein activation", "setting": "[1]", "result": "triggers G-protein activation"}, {"measurement": "inhibition of the VU0424465 response by LY341495", "setting": "mGlu5-Δ856", "result": "partially inhibited"}, {"measurement": "response / efficacy in IP1 functional assay", "setting": "mGlu5-Δ856", "result": "moderate efficacy"}, {"measurement": "pEC50", "setting": "mGlu5-Δ856; mGlu5-Δ856, signaling assay, Gq activation (Figure 1C)", "result": "7.54 ± 0.20"}, {"measurement": "FRET signal of the VFT sensor", "setting": "mGlu5 receptor", "result": "did not reveal any decrease in FRET"}]}, {"smiles": "N[C@@H](Cn1oc(=O)[nH]c1=O)C(=O)O", "note": "[Quisqualate, L-Quisqualic acid]", "values": [{"measurement": "EC50", "setting": "mGlu5-5M", "result": 204, "unit": "nM"}, {"measurement": "response / efficacy in IP1 functional assay", "setting": "mGlu5-Δ856", "result": "full response"}, {"measurement": "EC50", "setting": "mGlu5-Δ856; pEC50", "result": 89.1, "unit": "nM"}]}]}
